The record followed here is US12599562B2, “Nanocrystal microparticles of poorly soluble drugs and methods of production and use thereof” (The Board of Regents of the University of Oklahoma, priority 2017, dated 2026).

Data set [1] in a line: Apparent maximum solubility of SHetA2 NCs and SHetA2 NC-MPs in PBS containing 0.05% SDS. It is filed as physicochemical. The note with it: aqueous with cosolvent or surfactant or cyclodextrin, thermodynamic from solid, at first 5 min, read-out: apparent maximum solubility (highest drug solubility). The procedure:
SHetA2 NCs, SHetA2 MPs, and SHetA2 NC-MPs in PBS containing 0.05% SDS.
Apparent Maximum Solubility of SHetA2 NCs and SHetA2 NC-MPs
The apparent maximum solubility profiles of SHetA2 NCs, SHetA2 NC-MPs, unprocessed SHetA2 (i.e., unprocessed drug), and spray dried SHetA2 MPs (i.e., microparticulate amorphous drug) are shown in FIG. 8. […] SHetA2 NC-MPs and spray dried SHetA2 MPs followed a similar dissolution profile after 45 min. […] After 6 h, SHetA2 NCs followed a similar dissolution profile with the other two formulations.

Data set [2] is described as follows: Dissolution profile (cumulative percentage of SHetA2 dissolved). In kind it is physicochemical. The settings on record: size range 2.82-4.46 μm; level reached (NCs and NC-MPs rising until 5 h). The text has this: Cumulative percentage dissolved SHetA2 from unprocessed SHetA2, SHetA2 NCs, SHetA2 MPs, and SHetA2 NC-MPs.
Dissolution Profile of SHetA2 NC-MPs, Unprocessed SHetA2, and Spray Dried SHetA2 MPs of Size Range 2.82-4.46 μm
The mean cumulative percentage of SHetA2 dissolved versus time data for SHetA2 NCs, SHetA2 NC-MPs, spray dried SHetA2 MPs, and unprocessed SHetA2 is shown in FIG. 9. MPs in sizes 2.82-4.46 μm were studied, because the particles in this size range are deposited in the alveolar region of the lungs. […] The concentration of SHetA2 increased at a constant rate for SHetA2 NCs and SHetA2 NC-MPs until 5 h. […] In the case of spray dried SHetA2 MPs, there was a prompt release within the first 15 min, then SHetA2 concentration increased slowly until leveling at a cumulative percentage of 21.19±4.40%. In contrast, the unprocessed SHetA2 dissolved only 3.51±0.9%.

Converted amounts (≈) assume the structure as drawn.

As for `CC1(C)CC(C)(C)c2cc(NC(=S)Nc3ccc([N+](=O)[O-])cc3)ccc2S1` [unprocessed SHetA2], the solubility at 5 min in data set [1] came out at 0.48 ± 0.11 µg/mL (≈ 1.2 µM). In addition, the “cumulative percentage of SHetA2 dissolved” value in data set [2] is 3.51±0.9%.
